Source: US10961202B2, “Bis-benzimidazole compounds and methods of using the same” (THE SCRIPPS RESEARCH INSTITUTE, priority 2017, dated 2021)

Test system: r(CUG)12-MBNL1 complex
Experiment: Inhibition of the r(CUG)12-MBNL1 complex measured by TR-FRET
Type: biochemical
Settings: 80 nM RNA, 60 nM MBNL1-His6

Row | Compound | IC50 (Table M) [µM] | IC50 (Table L) [µM]
1 | CN(C)CCNC(=O)c1ccc(-c2nc3ccc(-c4ccc5nc(-c6ccc(C(=O)NCCOCCOCCOCCOCc7cn(CCCNCC(=O)N8CCCC8C(=O)N8CCC[C@H]8C(=O)N(CCCn8cc(COCCOCCOCCOCCNC(=O)c9ccc(-c%10nc%11ccc(-c%12ccc%13nc(-c%14ccc(C(=O)NCCN(C)C)cc%14)[nH]c%13c%12)cc%11[nH]%10)cc9)nn8)CC(N)=O)nn7)cc6)[nH]c5c4)cc3[nH]2)cc1 (stereo partly shown) [Compound 438] | > 200 | 
2 | CN(C)CCCOc1ccc2c(c1)nc(-c1ccc(-c3nc4cc(OCCCN(C)C)ccc4n3C)cc1)n2C [Compound 309] | > 200 | 
3 | CN(C)CCNC(=O)c1ccc(-c2nc3cc(-c4ccc5[nH]c(-c6ccc(C(=O)NCCN(C)CCCCc7cn(CCCNC(=O)CCC(=O)NCCCN=[N+]=[N-])nn7)cc6)nc5c4)ccc3[nH]2)cc1 [Compound 345] | 33.5 | 
4 | CN(C)CCCSc1ccc(-c2nc3cc(-c4ccc5[nH]c(-c6ccc(SCCCN(C)C)cc6)nc5c4)ccc3[nH]2)cc1 [Compound 383] | 41.6 | 
5 | c1cc(-c2nc3cc(-c4ccc5[nH]c(-c6ccc(CN7CCCC7)cc6)nc5c4)ccc3[nH]2)ccc1CN1CCCC1 [Compound 127, 2,2′-bis(4-(pyrrolidin-1-ylmethyl)phenyl)-1H,1′H-5,5′-bibenzo[d]imidazole] |  | 27.8
6 | CN(C)C(C)(C)CCOc1ccc2nc(-c3ccc(-c4nc5ccc(OCCC(C)(C)N(C)C)cc5[nH]4)cc3)[nH]c2c1 [Compound 282, 4,4′-((1,4-phenylenebis(1H-benzo[d]imidazole-2,6-diyl))bis(oxy))bis(N,N,2-trimethylbutan-2-amine)] | 179 | 
7 | CN(C)CCCOc1ccc2nc(-c3ccc(-c4nc5ccc(C(=O)NCCN6CCCCC6)cc5[nH]4)cc3)[nH]c2c1 [Compound 237, 2-(4-(6-(3-(dimethylamino)propoxy)-1H-benzo[d]imidazol-2-yl)phenyl)-N-(2-(piperidin-1-yl)ethyl)-1H-benzo[d]imidazole-6-carboxamide] | 26 | 
8 | CN(C)CCNC(=O)c1ccc(-c2nc3ccc(-c4ccc5nc(-c6ccc(C(=O)Nc7cccc(-c8cn(CCCNCC(=O)N9CCCC9C(=O)N9CCC[C@H]9C(=O)N(CCCn9cc(-c%10cccc(NC(=O)c%11ccc(-c%12nc%13ccc(-c%14ccc%15nc(-c%16ccc(C(=O)NCCN(C)C)cc%16)[nH]c%15c%14)cc%13[nH]%12)cc%11)c%10)nn9)CC(N)=O)nn8)c7)cc6)[nH]c5c4)cc3[nH]2)cc1 (stereo partly shown) [Compound 446] | 7.1 | 
9 | CN(C)CCCOc1ccc2nc(-c3ccc(-c4nc5ccc(OCCCN(C)C)cc5n4C)cc3)n(C)c2c1 [Compound 310] | > 200 | 
10 | COc1ccc2nc(-c3ccc(-c4nc5ccc(OCCCN(C)C)cc5[nH]4)cc3)[nH]c2c1 [Compound 245, 3-((2-(4-(6-methoxy-1H-benzo[d]imidazol-2-yl)phenyl)-1H-benzo[d]imidazol-6-yl)oxy)-N,N-dimethylpropan-1-amine] | 83.8 | 
11 | O=C(O)c1ccc2nc(-c3ccc(-c4nc5ccc(C(=O)NCCN6CCCCC6)cc5[nH]4)cc3)[nH]c2c1 [Compound 43, 2-(4-(6-((2-(piperidin-1-yl)ethyl)carbamoyl)-1H-benzo[d]imidazol-2-yl)phenyl)-1H-benzo[d]imidazole-6-carboxylic Acid] |  | > 200
12 | CN(C)CCCSCCOc1ccc2nc(-c3ccc(-c4nc5ccc(OCCSCCCN(C)C)cc5[nH]4)cc3)[nH]c2c1 [Compound 207] | 48.6 | 
13 | CC(=O)NCCN(C)CCNC(=O)c1ccc(-c2ccc3[nH]c(-c4ccc(OCCCN(C)C)cc4)nc3c2)cc1 [Compound 396] | > 200 | 
14 | Oc1ccc2nc(-c3ccc(-c4nc5ccc(OCCN6CCCC6)cc5[nH]4)cc3)[nH]c2c1 [Compound 204] | 129 | 
15 | CN1CCN(CCNC(=O)c2ccc(-c3nc4cc(-c5ccc6[nH]c(-c7ccc(C(=O)NCCN8CCN(C)CC8)cc7)nc6c5)ccc4[nH]3)cc2)CC1 [Compound 117] |  | 8.9
16 | CN(C)CCCOc1ccc2nc(-c3ccc(-c4nc5ccc(OCCCCO)cc5[nH]4)cc3)[nH]c2c1 [Compound 224] | 63.4 | 
17 | CN(C)CCCCOc1ccc2nc(-c3ccc(-c4nc5ccc(OCCCCN(C)C)cc5[nH]4)cc3)[nH]c2c1 [Compound 197, 4,4′-((1,4-phenylenebis(1H-benzo[d]imidazole-2,6-diyl))bis(oxy))bis(N,N-dimethylbutan-1-amine)] | 33.6 | 
18 | C[C@@H](NC(=O)CNCCCn1cc(CCCCN(C)CCNC(=O)CCCOc2ccc3[nH]c(-c4ccc(-c5nc6cc(OCCCN(C)C)ccc6[nH]5)cc4)nc3c2)nn1)C(=O)N[C@H](C)C(=O)N[C@H](C)C(=O)N[C@H](C)C(=O)N(CCCn1cc(CCCCN(C)CCNC(=O)CCCOc2ccc3[nH]c(-c4ccc(-c5nc6cc(OCCCN(C)C)ccc6[nH]5)cc4)nc3c2)nn1)CC(N)=O [Compound 407] | 110 | 
19 | CN1CCC[C@H]1COc1ccc2nc(-c3ccc(-c4nc5ccc(OC[C@@H]6CCCN6C)cc5[nH]4)cc3)[nH]c2c1 [Compound 199] | 47.8 | 
20 | CN(C)CCCCc1ccc2nc(-c3ccc(-c4nc5ccc(CCCCN(C)C)cc5[nH]4)cc3)[nH]c2c1 [Compound 220, 4,4′-(2,2′-(1,4-phenylene)bis(1H-benzo[d]imidazole-6,2-diyl))bis(N,N-dimethylbutan-1-amine)] | > 200 | 
21 | CN(C)CCCOc1ccc2[nH]c(-c3ccc(-c4nc5cc(OCCCN(C)C)ccc5n4C)cc3)nc2c1 [Compound 313] | > 200 | 
22 | CN(C)CC(CN(C)C)Oc1ccc(-c2nc3cc(-c4ccc5[nH]c(-c6ccc(OC(CN(C)C)CN(C)C)cc6)nc5c4)ccc3[nH]2)cc1 [Compound 369] | > 200 | 
23 | CN(C)CCCCOc1ccc2nc(-c3ccc(-c4nc5ccc(O)cc5[nH]4)cc3)[nH]c2c1 [Compound 200, 2-(4-(6-(4-(dimethylamino)butoxy)-1H-benzo[d]imidazol-2-yl)phenyl)-1H-benzo[d]imidazol-6-ol] | 32.1 | 
24 | CN1CCCCC1COc1ccc(-c2nc3cc(-c4ccc5[nH]c(-c6ccc(OCC7CCCCN7C)cc6)nc5c4)ccc3[nH]2)cc1 (stereo not shown) [Compound 359] | 65.5 | 
25 | CC(=O)Nc1ccc2nc(-c3ccc(-c4nc5ccc(Nc6ncccn6)cc5[nH]4)cc3)[nH]c2c1 [Compound 7, N-(2-(4-(5-(pyrimidin-2-ylamino)-1H-benzo[d]imidazol-2-yl)phenyl)-1H-benzo[d]imidazol-5-yl)acetamide] |  | 80
26 | CN(C)CCCOc1ccc2nc(-c3ccc(-c4nc5ccc(OCCCN(C)C)cc5[nH]4)c([N+](=O)[O-])c3)[nH]c2c1 [Compound 288, 3,3′-(((2-nitro-1,4-phenylene)bis(1H-benzo[d]imidazole-2,6-diyl))bis(oxy))bis(N,N-dimethylpropan-1-amine)] | 42.6 | 
27 | CN(C)CCNC(=O)c1ccc(-c2nc3ccc(-c4ccc5nc(-c6ccc(C(=O)N(C)CCOCCOCCOCCOCc7cn(CCCNCC(=O)N8CCC[C@H]8C(=O)N8CCC[C@H]8C(=O)N8CCC[C@H]8C(=O)N8CCC[C@H]8C(=O)N(CCCn8cc(COCCOCCOCCOCCN(C)C(=O)c9ccc(-c%10nc%11ccc(-c%12ccc%13nc(-c%14ccc(C(=O)NCCN(C)C)cc%14)[nH]c%13c%12)cc%11[nH]%10)cc9)nn8)CC(N)=O)nn7)cc6)[nH]c5c4)cc3[nH]2)cc1 [Compound 433] | > 200 | 
28 | CN(C)CCCNC(=O)c1ccc2nc(-c3ccc(-c4nc5ccc(C(=O)NCCN(C)C)cc5[nH]4)cc3)[nH]c2c1 [Compound 35, N-(2-(dimethylamino)ethyl)-2-(4-(6-((3-(dimethylamino)propyl)carbamoyl)-1H-benzo[d]imidazol-2-yl)phenyl)-1H-benzo[d]imidazole-6-carboxamide] |  | 6.2
